Calls of active or inactive are those of the source. The rule behind the calls is not given here.
Legend:
Rattus norvegicus [1] = assay: In vivo inhibition of NHE3 in Sprague-Dawley rat assessed as inhibition of sodium absorption from intestinal lumen by measuring urinary sodium concentration at 3 mg/kg, po via gavage measured after 16 hrs relative to control; type: functional; design: scale not given: the % may be the effect or the level left
[2] = target: Sodium/hydrogen exchanger 1 (Rattus norvegicus, UniProt P26431); assay: Inhibition of rat NHE1
Sodium/hydrogen exchanger 1, sequence (P26431 whole entry): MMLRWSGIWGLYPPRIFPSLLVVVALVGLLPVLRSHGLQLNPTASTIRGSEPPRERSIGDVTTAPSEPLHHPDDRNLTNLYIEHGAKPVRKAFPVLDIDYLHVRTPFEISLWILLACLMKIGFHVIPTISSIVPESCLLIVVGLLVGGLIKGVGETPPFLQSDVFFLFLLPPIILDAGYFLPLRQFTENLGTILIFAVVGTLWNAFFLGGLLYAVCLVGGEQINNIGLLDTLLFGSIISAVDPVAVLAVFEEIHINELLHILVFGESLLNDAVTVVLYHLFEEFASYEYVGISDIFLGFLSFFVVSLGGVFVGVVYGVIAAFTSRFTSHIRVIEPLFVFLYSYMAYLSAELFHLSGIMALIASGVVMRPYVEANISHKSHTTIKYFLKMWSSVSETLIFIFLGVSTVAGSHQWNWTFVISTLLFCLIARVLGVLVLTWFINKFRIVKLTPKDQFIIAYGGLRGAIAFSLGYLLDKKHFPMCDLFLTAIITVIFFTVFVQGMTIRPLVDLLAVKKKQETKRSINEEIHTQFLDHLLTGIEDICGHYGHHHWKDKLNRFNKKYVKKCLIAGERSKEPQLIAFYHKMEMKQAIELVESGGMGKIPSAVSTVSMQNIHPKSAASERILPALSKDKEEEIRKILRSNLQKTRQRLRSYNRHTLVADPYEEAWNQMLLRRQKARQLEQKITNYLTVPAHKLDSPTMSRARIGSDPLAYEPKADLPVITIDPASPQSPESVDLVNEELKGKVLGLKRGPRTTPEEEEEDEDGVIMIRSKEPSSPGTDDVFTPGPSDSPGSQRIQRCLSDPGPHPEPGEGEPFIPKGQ

[3] = target: T1, Sodium/hydrogen exchanger 2 (Oryctolagus cuniculus, UniProt P50482); assay: Inhibition of rabbit NHE2
T1 sequence (P50482 whole entry): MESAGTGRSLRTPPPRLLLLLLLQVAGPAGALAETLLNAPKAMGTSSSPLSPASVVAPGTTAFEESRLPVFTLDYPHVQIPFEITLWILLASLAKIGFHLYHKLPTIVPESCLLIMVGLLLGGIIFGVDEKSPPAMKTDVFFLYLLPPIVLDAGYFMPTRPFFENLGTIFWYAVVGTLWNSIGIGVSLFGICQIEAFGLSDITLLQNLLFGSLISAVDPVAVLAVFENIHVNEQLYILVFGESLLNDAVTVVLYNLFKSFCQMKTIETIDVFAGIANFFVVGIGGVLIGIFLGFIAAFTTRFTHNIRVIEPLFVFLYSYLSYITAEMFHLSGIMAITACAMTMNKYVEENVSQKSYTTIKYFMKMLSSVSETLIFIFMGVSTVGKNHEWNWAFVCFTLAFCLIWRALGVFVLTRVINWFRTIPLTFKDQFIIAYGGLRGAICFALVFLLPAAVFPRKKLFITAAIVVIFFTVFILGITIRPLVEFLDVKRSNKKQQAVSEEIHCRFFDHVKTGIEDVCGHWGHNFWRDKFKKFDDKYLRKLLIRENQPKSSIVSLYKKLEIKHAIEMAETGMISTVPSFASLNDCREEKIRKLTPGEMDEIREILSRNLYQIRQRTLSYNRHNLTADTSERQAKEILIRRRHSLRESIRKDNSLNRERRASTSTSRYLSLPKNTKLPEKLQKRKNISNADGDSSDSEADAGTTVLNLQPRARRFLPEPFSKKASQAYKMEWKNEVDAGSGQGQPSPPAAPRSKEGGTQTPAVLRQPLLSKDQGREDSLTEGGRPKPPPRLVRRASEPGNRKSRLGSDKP

[4] = target: Sodium/hydrogen exchanger 3 (Rattus norvegicus, UniProt P26433); assay: Inhibition of rat NHE3
Sodium/hydrogen exchanger 3, sequence (P26433 whole entry): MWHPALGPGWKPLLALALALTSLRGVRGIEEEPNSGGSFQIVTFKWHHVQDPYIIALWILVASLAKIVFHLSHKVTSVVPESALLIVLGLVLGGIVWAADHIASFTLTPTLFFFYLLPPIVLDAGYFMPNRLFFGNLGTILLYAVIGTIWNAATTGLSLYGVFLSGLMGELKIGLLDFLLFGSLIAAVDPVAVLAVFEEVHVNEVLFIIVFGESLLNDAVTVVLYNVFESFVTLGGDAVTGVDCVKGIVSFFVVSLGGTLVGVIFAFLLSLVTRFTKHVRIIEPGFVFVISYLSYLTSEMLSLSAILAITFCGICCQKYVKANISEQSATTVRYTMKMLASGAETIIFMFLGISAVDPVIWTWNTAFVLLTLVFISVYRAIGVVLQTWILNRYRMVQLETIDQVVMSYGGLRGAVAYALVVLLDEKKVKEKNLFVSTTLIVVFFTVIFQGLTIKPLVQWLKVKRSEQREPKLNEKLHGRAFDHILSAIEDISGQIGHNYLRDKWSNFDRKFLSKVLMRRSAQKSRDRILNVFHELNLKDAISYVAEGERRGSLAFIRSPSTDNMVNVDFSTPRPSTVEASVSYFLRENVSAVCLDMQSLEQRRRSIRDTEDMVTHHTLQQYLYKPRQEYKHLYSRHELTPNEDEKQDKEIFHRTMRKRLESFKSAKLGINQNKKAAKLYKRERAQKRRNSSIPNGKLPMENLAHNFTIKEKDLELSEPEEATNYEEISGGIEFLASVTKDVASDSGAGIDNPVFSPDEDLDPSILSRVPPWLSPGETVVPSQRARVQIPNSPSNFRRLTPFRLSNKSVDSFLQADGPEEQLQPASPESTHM

[5] = target: T2, Sodium/hydrogen exchanger 5 (Homo sapiens, UniProt Q14940); assay: Inhibition of NHE5 (unknown origin)
T2 sequence (Q14940 whole entry): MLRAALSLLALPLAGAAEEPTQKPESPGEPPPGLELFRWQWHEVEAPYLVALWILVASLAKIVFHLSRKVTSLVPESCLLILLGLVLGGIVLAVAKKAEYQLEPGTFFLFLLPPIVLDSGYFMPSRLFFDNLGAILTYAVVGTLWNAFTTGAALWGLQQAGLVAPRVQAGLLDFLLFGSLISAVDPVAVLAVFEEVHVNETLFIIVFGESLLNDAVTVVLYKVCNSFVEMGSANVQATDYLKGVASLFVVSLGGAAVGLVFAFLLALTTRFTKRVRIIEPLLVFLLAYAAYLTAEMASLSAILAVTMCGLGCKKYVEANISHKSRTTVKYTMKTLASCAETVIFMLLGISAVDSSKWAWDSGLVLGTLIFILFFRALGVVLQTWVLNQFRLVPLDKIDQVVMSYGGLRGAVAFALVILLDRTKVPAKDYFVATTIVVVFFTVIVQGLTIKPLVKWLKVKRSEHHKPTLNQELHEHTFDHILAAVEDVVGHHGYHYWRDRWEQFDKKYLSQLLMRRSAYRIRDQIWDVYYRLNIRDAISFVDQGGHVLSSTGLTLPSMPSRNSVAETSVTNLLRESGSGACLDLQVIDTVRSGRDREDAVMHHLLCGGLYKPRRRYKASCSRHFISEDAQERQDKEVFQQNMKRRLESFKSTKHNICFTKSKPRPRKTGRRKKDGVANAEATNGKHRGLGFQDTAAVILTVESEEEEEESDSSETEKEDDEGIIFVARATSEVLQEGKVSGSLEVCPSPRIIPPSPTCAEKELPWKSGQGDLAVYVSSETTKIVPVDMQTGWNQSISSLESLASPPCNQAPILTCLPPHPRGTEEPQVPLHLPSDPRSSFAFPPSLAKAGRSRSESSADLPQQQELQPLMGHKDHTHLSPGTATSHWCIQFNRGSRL

Rattus norvegicus [6] = assay: In vivo inhibition of NHE3 in Sprague-Dawley rat assessed as inhibition of sodium absorption from intestinal lumen by measuring urinary sodium concentration at 10 mg/kg, po via gavage measured after 16 hrs relative to control; type: functional; design: scale not given: the % may be the effect or the level left
[7] = Oral bioavailability in human; type: ADME, organism-based; conditions: in vivo
Rattus norvegicus [8] = assay: In vivo inhibition of NHE3 in Sprague-Dawley rat assessed as inhibition of sodium absorption from intestinal lumen by measuring urinary sodium concentration at 1 mg/kg, po via gavage measured after 16 hrs relative to control; type: functional; design: scale not given: the % may be the effect or the level left
Rattus norvegicus [9] = assay: In vivo inhibition of NHE3 in rat assessed as inhibition of 33Pi uptake at 10 mg/kg, po measured up to 120 mins; type: functional, organism-based
Rattus norvegicus [10] = assay: Decrease in phosphorus urinary excretion in dietary salt-induced partial renal ablation Sprague-Dawley rat model of chronic kidney disease at 0.1 to 3 mg/kg/day added to normal chow pellets; type: functional, organism-based
Rattus norvegicus [11] = assay: Decrease in calcium urinary excretion in dietary salt-induced partial renal ablation Sprague-Dawley rat model of chronic kidney disease at 0.1 to 3 mg/kg/day added to normal chow pellets; type: functional, organism-based

## CC(=O)C(CCNC(=O)NCCOCCOCCNS(=O)(=O)c1cccc([C@@H]2CN(C)Cc3c(Cl)cc(Cl)cc32)c1)(CCNC(=O)NCCOCCOCCNS(=O)(=O)c1cccc([C@@H]2CN(C)Cc3c(Cl)cc(Cl)cc32)c1)CCNC(=O)NCCOCCOCCNS(=O)(=O)c1cccc([C@@H]2CN(C)Cc3c(Cl)cc(Cl)cc32)c1
Rattus norvegicus [1]
  Activity: 42%

## N=C(N)NC(=O)c1nc(Cl)c(N)nc1N [AMILORIDE]
[2]
  IC50: 1000 to 1600 nM
[3]
  IC50: 1000 nM
[4]
  IC50: > 100000 nM
[5]
  IC50: 21000 nM

## O=C(NCCCCNC(=O)NCCOCCOCCNS(=O)(=O)c1ccc(O[C@H]2c3cc(Cl)cc(Cl)c3C[C@@H]2N2CC[C@@H](O)C2)cc1)NCCOCCOCCNS(=O)(=O)c1ccc(O[C@H]2c3cc(Cl)cc(F)c3C[C@@H]2N2CC[C@@H](O)C2)cc1
Rattus norvegicus [6]
  Activity: 104%

## NC[C@H]1CC[C@H](C(=O)O)CC1 [TRANEXAMIC ACID]
[7]
  bioavailability: 55%

## CN1Cc2c(Cl)cc(Cl)cc2[C@H](c2cccc(S(=O)(=O)NCCOCCOCCNC(=O)CCC(CCC(=O)NCCOCCOCCNS(=O)(=O)c3cccc([C@@H]4CN(C)Cc5c(Cl)cc(Cl)cc54)c3)(CC(=O)NCCOCCOCCNS(=O)(=O)c3cccc([C@@H]4CN(C)Cc5c(Cl)cc(Cl)cc54)c3)NC(=O)CCC(=O)O)c2)C1
Rattus norvegicus [8]
  Activity: 49%
Rattus norvegicus [1]
  Activity: 12%

## CCCCCCCCOCCOCCOCCOCCCOCCOC(=O)NCCOCCOCCOCCNS(=O)(=O)c1cccc([C@@H]2CN(C)Cc3c(Cl)cc(Cl)cc32)c1
Rattus norvegicus [6]
  Activity: 86%

## O=C(O)P(=O)(O)O [FOSCARNET]
[7]
  bioavailability: 17%

## CN1Cc2c(Cl)cc(Cl)cc2[C@H](c2ccc(S(=O)(=O)N(C)CCOCCOCCNC(=O)CCN(CCC(=O)NCCOCCOCCN(C)S(=O)(=O)c3cccc([C@@H]4CN(C)Cc5c(Cl)cc(Cl)cc54)c3)CCC(=O)NCCOCCOCCN(C)S(=O)(=O)c3cccc([C@@H]4CN(C)Cc5c(Cl)cc(Cl)cc54)c3)cc2)C1
Rattus norvegicus [1]
  Activity: 64%

## OC[C@@H](O)[C@@H](O)[C@H](O)[C@H](O)CO [MANNITOL]
[7]
  bioavailability: 26%

## CN1Cc2c(Cl)cc(Cl)cc2[C@H](c2cccc(S(=O)(=O)NCCOCCOCCNC(=O)CN3CCN(CC(=O)NCCOCCOCCOCCNS(=O)(=O)c4cccc([C@@H]5CN(C)Cc6c(Cl)cc(Cl)cc65)c4)CCN(CC(=O)NCCOCCOCCOCCNS(=O)(=O)c4cccc([C@@H]5CNCc6c(Cl)cc(Cl)cc65)c4)CCN(CC(=O)NCCOCCOCCOCCNS(=O)(=O)c4cccc([C@@H]5CN(C)Cc6c(Cl)cc(Cl)cc65)c4)CC3)c2)C1
Rattus norvegicus [6]
  Activity: 82%

## CN1Cc2c(Cl)cc(Cl)cc2[C@H](c2cccc(S(=O)(=O)NCCOCCNC(=O)CCC(CCC(=O)NCCOCCOCCNS(=O)(=O)c3cccc([C@@H]4CN(C)Cc5c(Cl)cc(Cl)cc54)c3)(CCC(=O)NCCOCCOCCNS(=O)(=O)c3cccc([C@@H]4CN(C)Cc5c(Cl)cc(Cl)cc54)c3)NC(=O)[C@H]3CCCC[C@@H]3C(=O)O)c2)C1
Rattus norvegicus [1]
  Activity: 63%

## CN1Cc2c(Cl)cc(Cl)cc2[C@@H](c2cccc(S(=O)(=O)NCCOCCOCCNC(=O)NCCCCNC(=O)NCCOCCOCCNS(=O)(=O)c3cccc([C@@H]4CN(C)Cc5c(Cl)cc(Cl)cc54)c3)c2)C1
Rattus norvegicus [9]
  inhibition: inactive

## CN1Cc2c(Cl)cc(Cl)cc2[C@H](c2cccc(S(=O)(=O)NCCOCCOCCNC(=O)NCCCCNC(=O)NCCOCCOCCNS(=O)(=O)c3cccc([C@@H]4CN(C)Cc5c(Cl)cc(Cl)cc54)c3)c2)C1
Rattus norvegicus [10]
  Activity: Active
Rattus norvegicus [11]
  Activity: Active

## CN1Cc2c(Cl)cc(Cl)cc2[C@H](c2cccc(S(=O)(=O)NCCOCCOCCNC(=O)NCCN(CCNC(=O)NCCOCCOCCNS(=O)(=O)c3cccc([C@@H]4CN(C)Cc5c(Cl)cc(Cl)cc54)c3)C(=O)CCCOCCOCCOCCOCCC(=O)N(CCNC(=O)NCCOCCOCCNS(=O)(=O)c3cccc([C@@H]4CN(C)Cc5c(Cl)cc(Cl)cc54)c3)CCNC(=O)NCCOCCOCCNS(=O)(=O)c3cccc([C@@H]4CN(C)Cc5c(Cl)cc(Cl)cc54)c3)c2)C1
Rattus norvegicus [6]
  Activity: 47%

## C=CCOc1ccccc1OCC(O)CNC(C)C (stereo unspecified) [OXPRENOLOL]
[7]
  bioavailability: 97%

## CN1Cc2c(Cl)cc(Cl)cc2[C@H](c2ccc(S(=O)(=O)NCCOCCOCCNC(=O)NCCCCNC(=O)NCCOCCOCCNS(=O)(=O)c3cccc([C@@H]4CN(C)Cc5c(Cl)cc(Cl)cc54)c3)cc2)C1.Cl.Cl
Rattus norvegicus [6]
  Activity: 90%

## C=CCc1ccccc1OCC(O)CNC(C)C (stereo unspecified) [ALPRENOLOL]
[7]
  bioavailability: 96%

## OC[C@H]1O[C@@H](O[C@@H]2[C@@H](CO)O[C@](O)(CO)[C@H]2O)[C@H](O)[C@@H](O)[C@H]1O (mixture of isomers) [LACTULOSE]
[7]
  bioavailability: 0.6%

## O=C(O)c1cc(/N=N/c2ccc(O)c(C(=O)O)c2)ccc1O [OLSALAZINE]
[7]
  bioavailability: 2.3%

## CN1Cc2c(Cl)cc(Cl)cc2[C@@H](c2ccc(S(=O)(=O)NCCOCCOCCNC(=O)NCCCCNC(=O)NCCOCCOCCNS(=O)(=O)c3cccc([C@@H]4CN(C)Cc5c(Cl)cc(Cl)cc54)c3)cc2)C1.Cl.Cl
Rattus norvegicus [6]
  Activity: 68%

## CC(=O)Nc1ccc(OCC(O)CNC(C)C)cc1 (stereo unspecified) [PRACTOLOL]
[7]
  bioavailability: 95%

## OC[C@H]1O[C@H](OC[C@H]2O[C@H](O[C@]3(CO)O[C@H](CO)[C@@H](O)[C@@H]3O)[C@H](O)[C@@H](O)[C@@H]2O)[C@H](O)[C@@H](O)[C@H]1O [RAFFINOSE]
[7]
  bioavailability: 0.3%

## CN1Cc2c(Cl)cc(Cl)cc2[C@@H](c2cccc(S(=O)(=O)NCCOCCOCCNC(=O)N(C)CCCN(CCCN(C)C(=O)NCCOCCOCCNS(=O)(=O)c3cccc([C@@H]4CN(C)Cc5c(Cl)cc(Cl)cc54)c3)C(=O)NCCOCCOCCNS(=O)(=O)c3cccc([C@@H]4CN(C)Cc5c(Cl)cc(Cl)cc54)c3)c2)C1
Rattus norvegicus [6]
  Activity: 28%
Rattus norvegicus [8]
  Activity: 88%
Rattus norvegicus [1]
  Activity: 55%

## Cc1ccccc1N1C(=O)c2cc(S(N)(=O)=O)c(Cl)cc2NC1C (stereo unspecified) [METOLAZONE]
[7]
  bioavailability: 64%

## O=C(O)c1cc(/N=N/c2ccc(S(=O)(=O)Nc3ccccn3)cc2)ccc1O [SULFASALAZINE]
[7]
  bioavailability: 12%

## CCN1CCCC1CNC(=O)c1cc(S(N)(=O)=O)ccc1OC (stereo unspecified) [SULPIRIDE]
[7]
  bioavailability: 36%

## CN1Cc2c(Cl)cc(Cl)cc2[C@H](c2ccc(S(=O)(=O)NCCOCCOCCNCCCC(CCC(=O)NCCOCCOCCNS(=O)(=O)c3cccc([C@@H]4CN(C)Cc5c(Cl)cc(Cl)cc54)c3)(CCC(=O)NCCOCCOCCNS(=O)(=O)c3cccc([C@@H]4CN(C)Cc5c(Cl)cc(Cl)cc54)c3)NC(=O)N3CCN(CCOCCO)CC3)cc2)C1
Rattus norvegicus [1]
  Activity: 31%

## CC(C)NCC(O)COc1cccc2[nH]ccc12 (stereo unspecified) [PINDOLOL]
[7]
  bioavailability: 92%

## Cc1cc(=O)n(-c2ccccc2)n1C [ANTIPYRINE]
[7]
  bioavailability: 97%

Source: ChEMBL document CHEMBL4257082, “Nhe3-binding compounds and methods for inhibiting phosphate transport” (2016)
